{"source": "BindingDB's records for doi:10.1021/jm201449n", "about": "(Cephalon, 2012)", "molecular_target": "Mitogen-activated protein kinase kinase kinase 7 (TAK1/MAP3K7) (Homo sapiens) (UniProt O43318)", "sequence (O43318 whole entry, looked up)": "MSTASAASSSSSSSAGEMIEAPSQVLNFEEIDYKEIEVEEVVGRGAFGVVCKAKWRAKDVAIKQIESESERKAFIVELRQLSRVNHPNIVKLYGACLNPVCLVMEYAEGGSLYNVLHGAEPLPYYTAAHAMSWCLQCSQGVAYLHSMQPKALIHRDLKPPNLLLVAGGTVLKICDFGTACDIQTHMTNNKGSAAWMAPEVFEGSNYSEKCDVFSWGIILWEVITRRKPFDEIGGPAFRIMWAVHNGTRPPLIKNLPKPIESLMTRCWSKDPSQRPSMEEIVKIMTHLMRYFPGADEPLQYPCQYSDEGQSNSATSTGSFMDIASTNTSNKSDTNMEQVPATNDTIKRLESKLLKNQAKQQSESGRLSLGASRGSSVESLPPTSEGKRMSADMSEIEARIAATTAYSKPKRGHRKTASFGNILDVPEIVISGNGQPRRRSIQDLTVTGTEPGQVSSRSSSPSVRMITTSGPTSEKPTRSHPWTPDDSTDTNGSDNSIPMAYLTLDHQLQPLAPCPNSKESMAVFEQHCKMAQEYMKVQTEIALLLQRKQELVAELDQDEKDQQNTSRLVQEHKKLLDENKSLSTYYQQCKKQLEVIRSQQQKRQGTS", "assay": "Inhibition of human TAK1 using ATP as substrate"}
{"smiles": "CC(C)Cn1c2ccc(Nc3ncccn3)cc2c2c3c(c4c(c21)CCc1nn(C)cc1-4)C(=O)NC3", "note": "[CEP-11981]", "values": [{"measurement": "IC50", "value": 14, "unit": "nM"}]}
